# Assay results reported in patent US20260207600A1, “METHODS OF TREATMENT WITH MYOSIN MODULATOR” (MYOKARDIA, INC., priority 2019, published 2026).
# Several values for one entry are separate records, joined by “and”; a condition that tells them apart may be missing. Identical values can stand only once.
# Legend:
# [1] = tested on: individuals with symptomatic obstructive hypertrophic cardiomyopathy (oHCM); assay: PIONEER-OLE Phase 2 open-label extension study of mavacamten; assay type: in vivo
# Protocol: All subjects were started on a dose of 5 mg QD.
# To maximize safety, the starting dose will be 5 mg for all subjects. Subjects will return at Week 4 (±4 days) for a plasma PK sample to measure drug levels and to undergo echocardiography to determine LVOT gradient (at rest, after a Valsalva maneuver, and after exercise) and left ventricular ejection fraction (LVEF).
# After Week 6, additional study visits will occur at Week 8 (±7 days), Week 12 (±7 days), and every 12 weeks (±7 days) thereafter. Subjects also will be contacted by phone in between clinic visits, at Week 18 and every 12 weeks thereafter. An end of study (EOS) visit will occur 12 weeks (±7 days) after the last administration of study drug. Visits (including the Screening visit which serves as the baseline) will entail recording vital signs, targeted physical examination, ECGs, safety laboratory tests, N-terminal pro b-type natriuretic peptide (NT-proBNP), adverse events (AEs), New York Heart Association (NYHA) functional class, Kansas City Cardiomyopathy Questionnaire (KCCQ) score, and concomitant medications. At Weeks 4, 8, 24, 36, 48, 60, 72, 96, 120, 144, 156/early termination (ET), and 168/EOS, a predose blood sample for assessment of drug concentration will be obtained. A standard TTE (including but not limited to assessment of LVOT gradient at rest and after Valsalva) will be performed at baseline, at Weeks 4, 8, 12, 24, 36, 48, 72, 96, 120, 144, 156/ET, and 168/EOS. In addition, a stress echocardiogram (with assessment of LVOT gradient post-exercise) will also be performed at baseline, Weeks 4, 48, 72, 156/ET, and 168/EOS.
# The study endpoints include safety, tolerability, and select measures of efficacy using individualized dosing. Key measurements include LVOT gradient, LVEF, NT-proBNP.
# • 1. Frequency and severity of treatment-emergent AEs and SAEs, • 2. Frequency of cardiovascular (CV) death, • 3. Frequency of sudden death, • 4. Frequency of CV hospitalization, • 5. Frequency of heart failure requiring the initiation of oral loop diuretics or the administration of intravenous loop diuretics, • 6. Frequency of myocardial infarction, • 7. Frequency of ventricular arrhythmias (ventricular tachycardia, ventricular fibrillation, ventricular flutter, torsade de pointe), • 8. Frequency of syncope, • 9. Frequency of seizures, • 10. Frequency of stroke, • 11. Frequency of LVEF≤45% as measured by echocardiography, • 12. QT and QTcF intervals over time.
# • 1. Post-exercise, post-Valsalva, and resting LVOT gradient over time, • 2. NYHA functional class over time, • 3. KCCQ scores over time, • 4. NT-proBNP over time, • 5. Frequency of septal reduction therapy.
# CYP2C9 = CYP2C9 (Homo sapiens, UniProt P11712); assay: In vitro contribution of CYP enzymes to mavacamten metabolism; assay type: in vitro ADME
# [2] = Change from Baseline to Week 48
# CYP2C9, sequence (P11712 whole entry): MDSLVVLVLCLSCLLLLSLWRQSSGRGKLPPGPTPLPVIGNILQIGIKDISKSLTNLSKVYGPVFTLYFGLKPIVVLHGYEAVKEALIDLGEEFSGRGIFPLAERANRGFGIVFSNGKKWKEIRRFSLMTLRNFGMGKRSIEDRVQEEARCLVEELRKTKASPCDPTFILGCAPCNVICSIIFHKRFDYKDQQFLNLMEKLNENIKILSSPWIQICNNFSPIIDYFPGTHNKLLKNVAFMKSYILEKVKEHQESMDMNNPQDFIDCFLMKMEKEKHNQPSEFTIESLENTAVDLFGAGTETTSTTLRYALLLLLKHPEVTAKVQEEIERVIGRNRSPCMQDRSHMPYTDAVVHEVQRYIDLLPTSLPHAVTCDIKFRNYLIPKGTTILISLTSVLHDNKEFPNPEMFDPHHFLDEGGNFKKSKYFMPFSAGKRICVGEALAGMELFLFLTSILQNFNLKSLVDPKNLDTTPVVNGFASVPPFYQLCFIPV
structure (smiles),measurement,setting,value
"CC(C)n1c(=O)cc(N[C@@H](C)c2ccccc2)[nH]c1=O [mavacamten, (S)-3-Isopropyl-6-((1-phenylethyl)amino)pyrimidine-2, 4(1H,3H)-dione]",Cardiac-related adverse events (AEs) attributed to study drug,[1]; 48-week period,no cardiac-related adverse events
same,E/e′ lateral,[1]; [2],−3.4
same,"NT-proBNP, median",[1]; [2],-472 pg/mL
same,"e′lat, mean ± SD",[1]; [2],1.6 cm/s and 1.6 ± 1.1 cm/s
same,IVS,"[1]; Change from Baseline to Week 48, Table 1.1",−1.5 mm
same,E/e′ lateral,[1]; Week 12,9.8
same,"Interventricular septal thickness, Change from baseline, mean ± SD",[1]; Week 12,−0.7 ± 0.7 mm
same,"Interventricular septal thickness, Mean ± SD",[1]; Week 12,15.9 ± 2.7 mm
same,"LV maximum wall thickness, Change from baseline, mean ± SD",[1]; Week 12,−0.8 ± 2.0 mm
same,"LV maximum wall thickness, Mean ± SD",[1]; Week 12,20.1 ± 2.5 mm
same,"LV posterior wall thickness, Change from baseline, mean ± SD",[1]; Week 12,0.2 ± 0.8 mm
same,"LV posterior wall thickness, Mean ± SD",[1]; Week 12,11.9 ± 2.2 mm
same,"NT-proBNP, median",[1]; Week 12,99 pg/mL
same,"Systolic anterior motion of the mitral valve present, %",[1]; Week 12,(46.2) %
same,"e′lat, mean ± SD",[1]; Week 12,8.4 ± 2.3 cm/s
same,IVS,"[1]; Week 12, Table 1.1",16.0 mm
same,E/e′ lateral,[1]; Week 24,10.2
same,"Interventricular septal thickness, Change from baseline, mean ± SD",[1]; Week 24,−0.7 ± 1.1 mm
same,"Interventricular septal thickness, Mean ± SD",[1]; Week 24,15.8 ± 2.7 mm
same,"LV maximum wall thickness, Change from baseline, mean ± SD",[1]; Week 24,−1.8 ± 1.8 mm
same,"LV maximum wall thickness, Mean ± SD",[1]; Week 24,19.1 ± 2.4 mm
same,"LV posterior wall thickness, Change from baseline, mean ± SD",[1]; Week 24,0.2 ± 0.9 mm
same,"LV posterior wall thickness, Mean ± SD",[1]; Week 24,11.8 ± 2.0 mm
same,"NT-proBNP, median",[1]; Week 24,93 pg/mL
same,"Systolic anterior motion of the mitral valve present, %",[1]; Week 24,(46.2) %
same,"e′lat, mean ± SD",[1]; Week 24,7.9 ± 2.2 cm/s
same,IVS,"[1]; Week 24, Table 1.1",15.8 mm
same,E/e′ lateral,[1]; Week 36,8.5
same,"Interventricular septal thickness, Change from baseline, mean ± SD",[1]; Week 36,−1.2 ± 1.7 mm
same,"Interventricular septal thickness, Mean ± SD",[1]; Week 36,15.4 ± 2.7 mm
same,"LV maximum wall thickness, Change from baseline, mean ± SD",[1]; Week 36,−1.8 ± 1.9 mm
same,"LV maximum wall thickness, Mean ± SD",[1]; Week 36,19.0 ± 2.2 mm
same,"LV posterior wall thickness, Change from baseline, mean ± SD",[1]; Week 36,0.0 ± 1.5 mm
same,"LV posterior wall thickness, Mean ± SD",[1]; Week 36,11.7 ± 1.7 mm
same,"NT-proBNP, median",[1]; Week 36,168 pg/mL
same,"Systolic anterior motion of the mitral valve present, %",[1]; Week 36,(58.3) %
same,"e′lat, mean ± SD",[1]; Week 36,8.7 ± 2.8 cm/s
same,IVS,"[1]; Week 36, Table 1.1",15.4 mm
same,E/e′ lateral,[1]; Week 48,9.1
same,"Interventricular septal thickness, Change from baseline, mean ± SD",[1]; Week 48,−1.2 ± 2.3 mm
same,"Interventricular septal thickness, Mean ± SD",[1]; Week 48,15.5 ± 2.0 mm
same,"LV maximum wall thickness, Change from baseline, mean ± SD",[1]; Week 48,−1.4 ± 2.2 mm
same,"LV maximum wall thickness, Mean ± SD",[1]; Week 48,19.4 ± 2.7 mm
same,"LV posterior wall thickness, Change from baseline, mean ± SD",[1]; Week 48,−0.5 ± 1.9 mm
same,"LV posterior wall thickness, Mean ± SD",[1]; Week 48,11.1 ± 1.9 mm
same,"NT-proBNP, median",[1]; Week 48,137 pg/mL
same,"Systolic anterior motion of the mitral valve present, %",[1]; Week 48,(33.3) %
same,"Valsalva LVOT gradient, mean change",[1]; Week 48,−66.0 mm Hg
same,"e′lat, mean ± SD",[1]; Week 48,8.0 ± 1.6 cm/s
same,mean resting LVOT gradient,[1]; Week 48,14.0 mm Hg
same,patients achieving a post-exercise LVOT gradient<30 mm Hg,[1]; Week 48,Five
same,"post-exercise LVOT gradient, mean change",[1]; Week 48,−85.1 mm Hg
same,resting LVOT gradient for all subjects,[1]; Week 48,below 50 mmHg
same,subjects achieving asymptomatic status (NYHA Class I),[1]; Week 48,nine out of twelve
same,subjects with resting LVOT gradient below the 30 mmHg threshold,[1]; Week 48,11 of 12
same,IVS,"[1]; Week 48, Table 1.1",15 mm and 15.3 mm
same,"Interventricular septal thickness, Change from baseline, mean ± SD","[1]; Week 48, listed as Mavacamten",−1.2 mm
same,"LV maximum wall thickness, Change from baseline, mean ± SD","[1]; Week 48, listed as Mavacamten",−1.4 mm
same,KCCQ mean score,"[1]; Week 48, scores range 0-100",87.3
same,LVEF for all patients,[1]; all timepoints throughout the study,above 50%
same,"resting LVOT gradient, mean change",[1]; baseline to Week 48,−52.7 mm Hg
same,Number of AEs considered potentially related to study drug,[1]; in 3 subjects,8
same,number of SAEs,"[1]; in 3 subjects, not cardiovascular, not related to study drug",4
same,Number of AEs,"[1]; most mild or moderate, and transient",64
same,Tolerability,[1]; one-year treatment period,well tolerated
same,percent contribution to the metabolism of mavacamten,CYP2C9,7.5%
